US10233182B2, “Substituted spirocyclic inhibitors of autotaxin” (X-Rx, Inc., priority 2014, dated 2019)
Structures can show the parent of a compound that is named as a salt.

Target: Autotaxin (Homo sapiens (Human), UniProt Q13822)
Test: Autotaxin LPC Cascade Assay
Assay type: biochemical
Settings: Autotaxin 5 nM, LPC 100 μM, choline oxidase/HRP/Ampliflu Red fluorescence read-out, 2% DMSO, RT; read-out: IC50 ATX Activity
Summary of the method: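 Choline liberated from LPC by autotaxin during 1 h, after a 10-min RT compound preincubation, was converted through choline oxidase/HRP to a fluorescent Ampliflu Red product.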

Compound	IC50 [nM]
COc1ccc(N2C(=O)N(C)C(=O)C23CCN(C(=O)[C@H](NC(=O)c2cc(C4CC4)ccc2F)[C@@H](C)OC)CC3)cc1 [Example 49, 5-Cyclopropyl-2-fluoro-N-((2R,3R)-3-methoxy-1-(1-(4-methoxyphenyl)-3-methyl-2,4-dioxo-1,3,8-triazaspiro[4.5]decan-8-yl)-1-oxobutan-2-yl)benzamide]	< 500
CC(C)[C@@H](NC(=O)c1cc(Cl)cc(C(F)(F)F)c1)C(=O)N1CCC2(CC1)C(=O)N(C)CN2c1ccc(=O)n(C)c1 [Example 207, (R)-3-Chloro-N-(3-methyl-1-(3-methyl-1-(1-methyl-6-oxo-1,6-dihydropyridin-3-yl)-4-oxo-1,3,8-triazaspiro[4.5]decan-8-yl)-1-oxobutan-2-yl)-5-(trifluoromethyl)benzamide]	< 500
CO[C@@H](C)[C@@H](NC(=O)c1cccc(C)c1)C(=O)N1CCC2(CC1)C(=O)N(C)CN2c1ccccc1 [Example 134, N-((2R,3S)-3-Methoxy-1-(3-methyl-4-oxo-1-phenyl-1,3,8-triazaspiro[4.5]decan-8-yl)-1-oxobutan-2-yl)-3-methylbenzamide]	< 500
CCc1cc(F)cc(C(=O)N[C@@H](C(=O)N2CCC3(CC2)C(=O)N(C)C(=O)N3c2ccccc2)C(C)C)c1 [Example 47, (R)-3-Ethyl-5-fluoro-N-(3-methyl-1-(3-methyl-2,4-dioxo-1-phenyl-1,3,8-triazaspiro[4.5]decan-8-yl)-1-oxobutan-2-yl)benzamide]	500 to 1000
CCc1ccc(F)c(C(=O)N[C@@H](C(=O)N2CCC3(CC2)C(=O)N(C)CN3c2ccc(OCC(N)=O)cc2)C(C)C)c1 [Example 169, (R)—N-(1-(1-(4-(2-Amino-2-oxoethoxy)phenyl)-3-methyl-4-oxo-1,3,8-triazaspiro[4.5]decan-8-yl)-3-methyl-1-oxobutan-2-yl)-5-ethyl-2-fluorobenzamide]	< 500
Cc1ccc(C(F)(F)F)cc1C(=O)N[C@@H](C(=O)N1CCC2(CC1)C(=O)N(C)C(=O)N2c1ccc2[nH]ncc2c1)C(C)C [Example 61, (R)—N-(1-(1-(1H-Indazol-5-yl)-3-methyl-2,4-dioxo-1,3,8-triazaspiro[4.5]decan-8-yl)-3-methyl-1-oxobutan-2-yl)-2-methyl-5-(trifluoromethyl)benzamide]	≥ 1000
CC(C)[C@@H](NC(=O)c1cc(Cl)cc(C(F)(F)F)c1)C(=O)N1CCC2(CC1)C(=O)N(C)CN2c1ccc(C(=O)O)cc1 [Example 160, (R)-4-(8-(2-(3-Chloro-5-(trifluoromethyl)benzamido)-3-methylbutanoyl)-3-methyl-4-oxo-1,3,8-triazaspiro[4.5]decan-1-yl)benzoic Acid]	< 500
CC(C)[C@@H](NC(=O)c1cc(C(F)(F)F)ccc1F)C(=O)N1CCC2(CC1)C(=O)N(C)C(=O)N2c1ccc(C#N)cc1 [Example 7, (R)—N-(1-(1-(4-Cyanophenyl)-3-methyl-2,4-dioxo-1,3,8-triazaspiro[4.5]decan-8-yl)-3-methyl-1-oxobutan-2-yl)-2-fluoro-5-(trifluoromethyl)benzamide]	< 500
CC(C)[C@@H](NC(=O)c1cc(C(F)(F)F)ccc1F)C(=O)N1CCC2(CC1)C(=O)N(C)C(=O)N2Cc1ccc(Cl)cc1 [Example 99, (R)—N-(1-(1-(4-Chlorobenzyl)-3-methyl-2,4-dioxo-1,3,8-triazaspiro[4.5]decan-8-yl)-3-methyl-1-oxobutan-2-yl)-2-fluoro-5-(trifluoromethyl)benzamide]	< 500
CC(C)[C@@H](NC(=O)c1cc(C2CC2)ccc1F)C(=O)N1CCC2(CC1)C(=O)N(C)C(=O)N2c1ccc2[nH]ncc2c1 [Example 54, (R)—N-(1-(1-(1H-Indazol-5-yl)-3-methyl-2,4-dioxo-1,3,8-triazaspiro[4.5]decan-8-yl)-3-methyl-1-oxobutan-2-yl)-5-cyclopropyl-2-fluorobenzamide]	< 500
CCc1ccc(F)c(C(=O)N[C@@H](C(=O)N2CCC3(CC2)C(=O)N(C)C(=O)N3c2ccc3[nH]ncc3c2)C(C)C)c1 [Example 55, (R)—N-(1-(1-(1H-Indazol-5-yl)-3-methyl-2,4-dioxo-1,3,8-triazaspiro[4.5]decan-8-yl)-3-methyl-1-oxobutan-2-yl)-5-ethyl-2-fluorobenzamide]	< 500
CC(C)[C@@H](NC(=O)c1cc(OC(F)(F)F)ccc1F)C(=O)N1CCC2(CC1)C(=O)N(C)C(=O)N2c1ccc(-c2nn[nH]n2)cc1 [Example 225, (R)—N-(1-(1-(4-(2H-Tetrazol-5-yl)phenyl)-3-methyl-2,4-dioxo-1,3,8-triazaspiro[4.5]decan-8-yl)-3-methyl-1-oxobutan-2-yl)-2-fluoro-5-(trifluoromethoxy)benzamide]	< 500
COc1cccc(N2C(=O)N(C)C(=O)C23CCN(C(=O)[C@H](NC(=O)c2cc(C(F)(F)F)ccc2F)C(C)C)CC3)c1 [Example 10, (R)-2-Fluoro-N-(1-(1-(3-methoxyphenyl)-3-methyl-2,4-dioxo-1,3,8-triazaspiro[4.5]decan-8-yl)-3-methyl-1-oxobutan-2-yl)-5-(trifluoromethyl)benzamide]	< 500
CC(C)[C@@H](NC(=O)c1cc(C(F)(F)F)ccc1F)C(=O)N1CCC2(CC1)C(=O)N(C)C(=O)N2c1ccc(F)cc1 [Example 182, (R)-2-Fluoro-N-(1-(1-(4-fluorophenyl)-3-methyl-2,4-dioxo-1,3,8-triazaspiro[4.5]decan-8-yl)-3-methyl-1-oxobutan-2-yl)-5-(trifluoromethyl)benzamide]	< 500
CC(C)[C@@H](NC(=O)c1cc(Cl)cc(Cl)c1)C(=O)N1CCC2(CC1)C(=O)N(C)C(=O)N2c1ccccc1 [Example 48, (R)-3,5-Dichloro-N-(3-methyl-1-(3-methyl-2,4-dioxo-1-phenyl-1,3,8-triazaspiro[4.5]decan-8-yl)-1-oxobutan-2-yl)benzamide]	< 500
CC(C)[C@@H](NC(=O)c1cc(C(F)(F)F)ccc1F)C(=O)N1CCC2(CC1)C(=O)N(C)[C@@H](C)N2c1ccc(C(=O)O)cc1 [Example 213, 4-((S)-8-((R)-2-(2-Fluoro-5-(trifluoromethyl)benzamido)-3-methylbutanoyl)-2,3-dimethyl-4-oxo-1,3,8-triazaspiro[4.5]decan-1-yl)benzoic Acid]	< 500
CC(C)[C@@H](NC(=O)c1cc(C(F)(F)F)ccc1F)C(=O)N1CCC2(CC1)C(=O)N(C)C(=O)N2C1CCCC1 [Example 125, (R)—N-(1-(1-Cyclopentyl-3-methyl-2,4-dioxo-1,3,8-triazaspiro[4.5]decan-8-yl)-3-methyl-1-oxobutan-2-yl)-2-fluoro-5-(trifluoromethyl)benzamide]	< 500
CC(C)[C@@H](NC(=O)c1cc(C(F)(F)F)ccc1F)C(=O)N1CCC2(CC1)C(=O)N(C)C(=O)N2[C@@H](C)c1ccccc1 [Example 78, 2-Fluoro-N—((R)-3-methyl-1-(3-methyl-2,4-dioxo-1-((S)-1-phenylethyl)-1,3,8-triazaspiro[4.5]decan-8-yl)-1-oxobutan-2-yl)-5-(trifluoromethyl)benzamide]	≥ 1000
CC(C)[C@@H](NC(=O)c1cc(C(F)(F)F)ccc1F)C(=O)N1CCC2(CC1)C(=O)N(CCN(C)C)CN2c1ccc(C(=O)O)cc1 [Example 238, (R)-4-(3-(2-(Dimethylamino)ethyl)-8-(2-(2-fluoro-5-(trifluoromethyl)benzamido)-3-methylbutanoyl)-4-oxo-1,3,8-triazaspiro[4.5]decan-1-yl)benzoic Acid trifluoroacetic Acid Salt]	< 500
CC(C)[C@@H](NC(=O)c1cc(C(F)(F)F)ccc1F)C(=O)N1CCC2(CC1)C(=O)N(C)CN2c1ccc(NS(C)(=O)=O)cc1 [Example 174, (R)-2-Fluoro-N-(3-methyl-1-(3-methyl-1-(4-(methylsulfonamido)phenyl)-4-oxo-1,3,8-triazaspiro[4.5]decan-8-yl)-1-oxobutan-2-yl)-5-(trifluoromethyl)benzamide]	< 500
CCc1ccc(F)c(C(=O)N[C@@H](C(=O)N2CCC3(CC2)C(=O)N(C)CN3c2ccc(OCC(=O)O)cc2)C(C)C)c1 [Example 168, (R)-2-(4-(8-(2-(5-Ethyl-2-fluorobenzamido)-3-methylbutanoyl)-3-methyl-4-oxo-1,3,8-triazaspiro[4.5]decan-1-yl)phenoxy)acetic Acid]	< 500
CC(C)[C@@H](NC(=O)c1cc(C(F)(F)F)ccc1F)C(=O)N1CCC2(CC1)C(=O)N(C)CN2c1ccc(S(C)(=O)=O)cc1 [Example 205, (R)-2-Fluoro-N-(3-methyl-1-(3-methyl-1-(4-(methylsulfonyl)phenyl)-4-oxo-1,3,8-triazaspiro[4.5]decan-8-yl)-1-oxobutan-2-yl)-5-(trifluoromethyl)benzamide]	< 500
CC(C)[C@@H](NC(=O)c1cc(C2CC2)ccc1F)C(=O)N1CCC2(CC1)C(=O)N(C)C(=O)N2c1ccccc1 [Example 42, (R)-5-Cyclopropyl-2-fluoro-N-(3-methyl-1-(3-methyl-2,4-dioxo-1-phenyl-1,3,8-triazaspiro[4.5]decan-8-yl)-1-oxobutan-2-yl)benzamide]	< 500
CC(C)[C@@H](NC(=O)c1cc(C(F)(F)F)ccc1Cl)C(=O)N1CCC2(CC1)C(=O)N(C)C(=O)N2c1ccc2[nH]ncc2c1 [Example 68, (R)—N-(1-(1-(1H-Indazol-5-yl)-3-methyl-2,4-dioxo-1,3,8-triazaspiro[4.5]decan-8-yl)-3-methyl-1-oxobutan-2-yl)-2-chloro-5-(trifluoromethyl)benzamide]	≥ 1000
Cc1cccc(C(=O)N[C@@H](C(=O)N2CCC3(CC2)C(=O)N(C)CN3c2ccc(Cl)cc2)C(C)C)c1 [Example 193, (R)—N-(1-(1-(4-Chlorophenyl)-3-methyl-4-oxo-1,3,8-triazaspiro[4.5]decan-8-yl)-3-methyl-1-oxobutan-2-yl)-3-methylbenzamide]	< 500
Cc1nc2cc(N3C(=O)N(C)C(=O)C34CCN(C(=O)[C@H](NC(=O)c3cc(C(F)(F)F)ccc3F)C(C)C)CC4)ccc2o1 [Example 246, (R)—N-(1-(1-(2-Methylbenzo[d]oxazol-5-yl)-3-methyl-2,4-dioxo-1,3,8-triazaspiro[4.5]decan-8-yl)-3-methyl-1-oxobutan-2-yl)-2-fluoro-5-(trifluoromethyl)benzamide]	< 500
